Each structure is given as a SMILES string.

The values below come from patent US9321752B2, “Pyrazole derivative” (GREEN TECH CO., LTD., priority 2012, dated 2016).

Data set [1] can be described thus: Concentration measurement in brain after oral administration. In kind it is in vivo. The following applies: ICR mice (male, 7 weeks old), single dose of 5 mg/kg, whole brain, LC/MS/MS. Here is the method: Each of the compounds of the present invention shown in Tables 40 and 41 and the compound of Example 2 of JP 2012-229208 A was orally administered to ICR mice (male, 7 weeks old) in a single dose of 5 mg/kg. At 3, 6 and 9 hours after the administration, 1, 3, 6 and 9 hours after the administration, or 1, 3, 6, 9 and 24 hours after the administration, the mice were subjected to perfusion by infusing physiological saline into the heart under inhalational anesthesia with isoflurane, and the whole brain was harvested. Physiological saline was added to the harvested brain in an amount equal to twice the wet weight of the brain and the brain was homogenized. Then, an equal volume of methanol was added thereto, and the mixture was deproteinized. The concentration of each compound in the sample was measured by LC/MS/MS.

The target in data set [2] is Recombinant three-repeat microtubule-binding domain (3R-MBD) of tau protein (Homo sapiens, UniProt P10636). Kind of data set: Determination of tau aggregation inhibitory activity (thioflavin T fluorescence, heparin-induced). In kind it is biochemical. The following applies: for IC50: 10 μM tau 3R-MBD, 10 μM heparin, 37° C. for 16 hours, thioflavin T; for Emax: 16 h, maximum inhibition at the concentrations used (0.1, 0.3, 1, 3, and 10 μM). As to the method:
Recombinant three-repeat microtubule-binding domain (3R-MBD) of tau protein was expressed in E. coli and was purified and used for the experiment. The purified tau solution was diluted with a 50 mM Tris-HCl buffer (pH 7.6) to a final concentration of 10 μM. The test compounds were prepared using dimethylsulfoxide (hereinafter also referred to as DMSO) at 20-fold of their final concentrations and added to the tau solution so that the DMSO concentration would be 5%. To this solution, heparin was added so that the final concentration would be 10 μM and the plate was left to stand at 37° C. for 16 hours. Thioflavin T was added to the plate so that the concentration would be 10 μM and the fluorescence intensity was measured with a fluorescence plate reader (PerkinElmer, Inc.)(excitation wavelength: 440 nm; fluorescence wavelength: 486 nm). The final concentration of each compound at the time of measurement was set at 0.1, 0.3, 1, 3, and 10 μM. The sample to which only DMSO was added was used as a negative control and its fluorescence intensity was taken as 0% inhibitory activity to determine the 50% inhibitory concentration (IC50) of each compound.

Sequence of Recombinant three-repeat microtubule-binding domain (3R-MBD) of tau protein (P10636 2-758 limits assumed): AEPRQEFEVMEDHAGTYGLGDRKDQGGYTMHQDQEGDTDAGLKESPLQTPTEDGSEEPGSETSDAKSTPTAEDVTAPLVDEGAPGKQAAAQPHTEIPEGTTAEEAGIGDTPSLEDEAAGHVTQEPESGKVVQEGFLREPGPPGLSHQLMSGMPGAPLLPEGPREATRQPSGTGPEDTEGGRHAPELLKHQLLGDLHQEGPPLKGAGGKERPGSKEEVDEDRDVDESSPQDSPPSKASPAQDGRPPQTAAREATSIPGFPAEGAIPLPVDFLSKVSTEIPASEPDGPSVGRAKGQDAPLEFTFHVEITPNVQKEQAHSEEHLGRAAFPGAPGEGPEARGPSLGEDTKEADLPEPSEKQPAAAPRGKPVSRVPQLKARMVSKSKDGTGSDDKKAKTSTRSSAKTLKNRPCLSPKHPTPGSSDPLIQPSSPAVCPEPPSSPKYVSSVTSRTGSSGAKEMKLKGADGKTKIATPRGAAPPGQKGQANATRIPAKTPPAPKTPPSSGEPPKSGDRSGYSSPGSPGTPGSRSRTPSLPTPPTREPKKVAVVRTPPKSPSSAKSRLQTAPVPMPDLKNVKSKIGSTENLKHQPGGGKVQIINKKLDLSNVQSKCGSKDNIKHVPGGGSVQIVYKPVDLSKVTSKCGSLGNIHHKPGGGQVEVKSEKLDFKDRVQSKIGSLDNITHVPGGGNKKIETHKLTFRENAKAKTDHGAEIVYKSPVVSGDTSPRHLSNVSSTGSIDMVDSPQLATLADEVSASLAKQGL

Take `Cn1cccc1/C=C/c1cc(/C=C/c2ccc(OCc3ccccn3)cc2F)n[nH]1` [Example 19-4, 2-[[3-fluoro-4-[(E)-2-[5-[(E)-2-(1-methylpyrrol-2-yl)vinyl]-1H-pyrazol-3-yl]vinyl]phenoxy]methyl]pyridine]: the “AUC0-24 h in brain” value in data set [1] is listed as 3499 ng · hr/g-tissue. Besides, in data set [2], the IC50 is 0.51 µM.

On to `Cc1cc(OCc2ccccn2)ccc1/C=C/c1cc(/C=C/c2cccn2C)[nH]n1` [Example 32-5, 2-[[3-methyl-4-[(E)-2-[5-[(E)-2-(1-methylpyrrol-2-yl)vinyl]-1H-pyrazol-3-yl]vinyl]phenoxy]methyl]pyridine], for which, in data set [2], the IC50 amounted to 0.64 µM and the Emax was 90%.

`Cn1ccc2ccc(/C=C/c3cc(/C=C/c4ccc(OCc5ccccn5)cc4F)n[nH]3)cc21` [Example 16-2, 6-[(E)-2-[3-[(E)-2-[2-fluoro-4-(2-pyridylmethoxy)phenyl]vinyl]-1H-pyrazol-5-yl]vinyl]-1-methyl indole]: the IC50 in data set [2] amounted to 0.6 µM.

For the compound `COc1cc(OCc2ccccn2)ccc1/C=C/c1cc(/C=C/c2ccc(C)n2C)[nH]n1` [Example 23-2, 2-[[4-[(E)-2-[5-[(E)-2-(1,5-dimethylpyrrol-2-yl)vinyl]-1H-pyrazol-3-yl]vinyl]-3-methoxyphenoxy]methyl]pyridine], in data set [2], the IC50 stood at 0.59 µM and the Emax worked out at 92%.

Regarding `COc1cc(OCc2ccccn2)ccc1/C=C/c1cc(/C=C/c2ccnn2C)[nH]n1` [Example 42-2, 2-[[3-methoxy-4-[(E)-2-[5-[(E)-2-(2-methylpyrazol-3-yl)vinyl]-1H-pyrazol-3-yl]vinyl]phenoxy]methyl]pyridine], the IC50 in data set [2] amounted to 0.83 µM.

For the compound `CN1CCN(c2ccc(/C=C/c3cc(/C=C/c4ccc5ccn(C)c5c4)[nH]n3)cc2)CC1` [Example 18-2, 1-methyl-6-[(E)-2-[3-[(E)-2-[4-(4-methylpiperazin-1-yl)phenyl]vinyl]-1H-pyrazol-5-yl]vinyl]indole], in data set [1], the “AUC0-24 h in brain” value worked out at 9781 ng · hr/g-tissue.

As for `CN1CCN(c2ccc(/C=C/c3cc(/C=C/c4cccn4C)[nH]n3)cc2)CC1` [Example 27-3, 1-methyl-4-[4-[(E)-2-[5-[(E)-2-(1-methylpyrrol-2-yl)vinyl]-1H-pyrazol-3-yl]vinyl]phenyl]piperazine], in data set [1], the “AUC0-24 h in brain” value turned out to be 1302 ng · hr/g-tissue. The maximum response (Emax) in data set [2] was 91%.

With `COc1cc(OCc2ccccn2)ccc1/C=C/c1cc(/C=C/c2cccc(C)n2)[nH]n1` [Example 25-2, 2-[(E)-2-[3-[(E)-2-[2-methoxy-4-(2-pyridylmethoxy)phenyl]vinyl]-1H-pyrazol-5-yl]vinyl]-6-methylpyridine], in data set [2], the IC50 came to 0.84 µM.

Take `COc1cc(OCCc2ccccn2)ccc1/C=C/c1cc(/C=C/c2ccc3ccn(C)c3c2)[nH]n1` [Example 44-2, 6-[(E)-2-[3-[(E)-2-[2-methoxy-4-[2-(2-pyridyl)ethoxy]phenyl]vinyl]-1H-pyrazol-5-yl]vinyl]-1-methylindole]: the “AUC0-9 h in brain” value in data set [1] stood at 869 ng · hr/g-tissue.

On to `CN1CCCN(c2ccc(/C=C/c3cc(/C=C/c4ccc5ccn(C)c5c4)[nH]n3)cc2)CC1` [Example 43-2, 1-methyl-6-[(E)-2-[3-[(E)-2-[4-(4-methyl-1,4-diazepan-1-yl)phenyl]vinyl]-1H-pyrazol-5-yl]vinyl]indole], for which, in data set [2], the Emax is 92%.

Take `Cn1ccc2ccc(/C=C/c3cc(/C=C/c4ccc(OCc5ccccn5)cc4)n[nH]3)cc21` [Example 17-2, 1-methyl-6-[(E)-2-[3-[(E)-2-[4-(2-pyridylmethoxy)phenyl]vinyl]-1H-pyrazol-5-yl]vinyl]indole]: in data set [2], the IC50 was 0.65 µM.

For the compound `Cn1cccc1/C=C/c1cc(/C=C/c2ccc(OCc3ccccn3)cc2)n[nH]1` [Example 20-3, 2-[[4-[(E)-2-[5-[(E)-2-(1-methylpyrrol-2-yl)vinyl]-1H-pyrazol-3-yl]vinyl]phenoxy]methyl]pyridine], the “AUC0-24 h in brain” value in data set [1] was determined as 5306 ng · hr/g-tissue. In data set [2], the 50% inhibitory concentration (IC50) was found to be 0.55 µM and the Emax was 89%.

In the case of `COc1cc(OCc2ccccn2)ccc1/C=C/c1cc(/C=C/c2cccn2C)[nH]n1` [Example 22-2, 2-[[3-methoxy-4-[(E)-2-[5-[(E)-2-(1-methylpyrrol-2-yl)vinyl]-1H-pyrazol-3-yl]vinyl]phenoxy]methyl]pyridine], the “AUC0-9 h in brain” value in data set [1] amounted to 458 ng · hr/g-tissue. In addition, in data set [2], the IC50 was 0.66 µM and the Emax came out at 90%.

For `COc1cc(OCCN2CCOCC2)ccc1/C=C/c1cc(/C=C/c2cccn2C)[nH]n1` [Example 21-2, 4-[2-[3-methoxy-4-[(E)-2-[5-[(E)-2-(1-methylpyrrol-2-yl)vinyl]-1H-pyrazol-3-yl]vinyl]phenoxy]ethyl]morpholine], the Emax in data set [2] is 89%.

With `C(=C\c1cc(/C=C/c2ccc3cc[nH]c3c2)[nH]n1)/c1cccc(OCCN2CCOCC2)c1` [Example 53-2, 4-[2-[3-[(E)-2-[5-[(E)-2-(1H-indol-6-yl)vinyl]-1H-pyrazol-3-yl]vinyl]phenoxy]ethyl]morpholine], the IC50 in data set [2] is 0.84 µM.

`CN1CCCN(c2ccc(/C=C/c3cc(/C=C/c4cccn4C)[nH]n3)cc2)CC1` [Example 28-2, 1-methyl-4-[4-[(E)-2-[5-[(E)-2-(1-methylpyrrol-2-yl)vinyl]-1H-pyrazol-3-yl]vinyl]phenyl]-1,4-diazepane]: the Emax in data set [2] is 93%.

Regarding `COc1cc(OCCN2CCOCC2)ccc1/C=C/c1cc(/C=C/c2ccc3ccn(C)c3c2)[nH]n1` [Example 14-2, 4-[2-[3-methoxy-4-[(E)-2-[5-[(E)-2-(1-methylindol-6-yl)vinyl]-1H-pyrazol-3-yl]vinyl]phenoxy]ethyl]morpholine], the “AUC0-24 h in brain” value in data set [1] was 24639 ng · hr/g-tissue.
